In PubChem BioAssay (NCI):
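A five-concentration, 48-hour dose response in 96-well plates underlies each endpoint, interpolated linearly between surrounding concentrations. At the GI50, growth is halved. Definition used: TGI = concentration required for complete inhibition of growth.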

Assays:
Test in all cases: DTP human tumour cell line panel, 48 h
[1] = tested on: A498 renal
[2] = tested on: A549 NSCLC
[3] = tested on: DLD-1 colon
[4] = tested on: DMS 114 small cell lung
[5] = tested on: IGROV1 ovarian
[6] = tested on: SK-OV-3 ovarian
[7] = tested on: UACC-257 melanoma
[8] = tested on: MCF7 breast
[9] = tested on: MDA-MB-435
[10] = tested on: PC-3 prostate

Compound | TGI [1] [µM] | TGI [2] [µM] | TGI [3] [µM] | TGI [4] [µM] | TGI [5] [µM] | TGI [6] [µM] | TGI [7] [µM] | GI50 [1] [nM] | GI50 [8] [µM] | TGI [8] [µM] | GI50 [9] [µM] | TGI [9] [µM] | GI50 [10] [µM] | TGI [10] [µM] | GI50 [3] [µM] | GI50 [4] [µM] | GI50 [5] [µM] | GI50 [6] [µM] | GI50 [2] [µM] | GI50 [7] [µM]
COc1ccc(N=Nc2c(-c3ccccc3)nn(C(=O)CC(=O)Nc3cccc(Cl)c3)c2-c2ccccc2)cc1 | > 100 | > 100 | > 100 | > 100 | > 100 | > 100 | > 100 |  |  |  |  |  |  |  |  |  |  |  |  | 
O=c1c2ccccc2n2n1CC(O)C2 (stereo not drawn) | > 100 | > 100 | > 100 |  | > 100 | > 100 | > 100 | > 100000 | > 100 | > 100 | > 100 | > 100 | > 100 | > 100 |  |  |  |  |  | 
C1C[S][Ge]2([S]CCO1)[S]CCOCC[S]2 | > 100 |  | > 100 | > 100 | > 100 | > 100 |  | > 100000 |  |  |  |  |  |  | > 100 | > 100 | > 100 | > 100 |  | 
O=C(c1ccccc1)c1ccc(OCCOc2ccc(Nc3ccccc3)cc2)cc1 | 79 | > 100 | > 100 | > 100 | > 100 | 64.4 | > 100 |  |  |  |  |  |  |  |  |  |  |  |  | 
CC/C(=C(/CC)c1ccc([O-])cc1)c1ccc([O-])cc1.CC/C(=C(\CC)c1ccc([O-])cc1)c1ccc([O-])cc1.O=C([CH-]C(=O)c1ccccc1)c1ccccc1.O=C([CH-]C(=O)c1ccccc1)c1ccccc1.O=C([CH-]C(=O)c1ccccc1)c1ccccc1.O=C([CH-]C(=O)c1ccccc1)c1ccccc1.[Ti+4].[Ti+4] |  | 47.9 | 53.1 |  | > 100 | 74.4 | > 100 |  |  |  |  |  |  |  | 19.8 |  | 41.9 | 30.8 | 18.9 | 28
CC(=O)c1cccc(NC(=O)C(=O)C(C2OC(=O)c3ccccc32)[N+](=O)[O-])c1 (stereo not drawn) | > 100 | > 100 | > 100 | > 100 | > 100 | > 100 | > 100 |  |  |  |  |  |  |  |  |  |  |  |  | 
O=C(O)Cc1cccc2c1Oc1ccccc1S2 | > 100 | > 100 | > 100 | > 100 | > 100 | > 100 | > 100 |  |  |  |  |  |  |  |  |  |  |  |  | 
O=c1cccccc1NCCCCCCNc1cccccc1=O | > 100 | > 100 | > 100 | > 100 | > 100 | > 100 | > 100 |  |  |  |  |  |  |  |  |  |  |  |  | 
CCSC1(SCC)CC(Cc2ccc(OC)cc2)N(C=NC(C)(C)C)C1 (stereo not drawn) | > 100 | > 100 | > 100 | 43.4 | > 100 | 83.6 | 47.5 |  |  |  |  |  |  |  |  |  |  |  |  | 
COC(=O)[C@]12CC[C@@H](C)[C@H](C)[C@@H]1C1=CC[C@@H]3[C@@]4(C)C(C=O)=C[C@@](C)(COC(=O)c5ccco5)[C@@H]4C(=O)C[C@@]3(C)[C@]1(C)CC2 | 94.7 | > 100 |  |  | > 100 | > 100 | 0.666 | 12100 | 4.07 | 44.2 | 0.193 | 4.33 | 3.66 | > 100 |  |  | 7.66 | 43.1 | 3.99 | 0.148
CCOC(=O)C1=C(C)NC2SC(=O)/C(=C\c3ccccc3O)N2C1c1ccccc1 (stereo not drawn) | 33.9 | > 100 |  |  | 64.1 | > 100 | > 100 | 11100 | 86 | > 100 | 19.6 | 62.5 | 26.5 | 74.1 |  |  | 25 | 52.8 | 27.2 | 42.4
COC1CCC(O)C(/C=C/[N+](=O)[O-])C1 (stereo not drawn) | 14.2 | 42.9 |  |  | 3.55 | 22.6 | 5.48 |  |  | 12.9 |  | 3.67 |  | 6.01 |  |  |  |  |  | 
CN(C)c1ccc(/C=C(\C#N)c2nc3ccccc3n2C)cc1 | 6.82 | > 100 |  |  | > 100 | 71.3 | > 100 | 729 | 0.612 | > 76 | 0.251 | 3.13 | 3.91 | > 48.8 |  |  | 5.13 | 4.09 | 4.53 | 20.2
CN[C@@H](C)[C@@H](N)c1ccccc1 | > 100 | > 100 | > 100 |  | > 100 | > 100 | > 100 |  |  |  |  |  |  |  |  |  |  |  |  | 
CC(C)(C)CC(C)(C)c1cc2c(O)c(c1)Cc1cc(C(C)(C)CC(C)(C)C)cc(c1O)Cc1cc(C(C)(C)CC(C)(C)C)cc(c1O)Cc1cc(C(C)(C)CC(C)(C)C)cc(c1O)Cc1cc(C(C)(C)CC(C)(C)C)cc(c1O)Cc1cc(C(C)(C)CC(C)(C)C)cc(c1O)C2 |  | > 100 | > 100 | > 100 | > 100 |  | > 100 |  |  |  |  |  |  |  |  |  |  |  |  | 
C[C@@H]1CC[C@@H]2[C@@H]1[C@H](OC(=O)/C=C/c1ccccc1)[C@]1(C3CCCCC3)C[C@@H](NC(=O)CO)[C@@]2(C)O1 | 6.61 | 37 |  |  | 35.5 | 32.1 | 42.1 | 2190 | 14.4 | 32.7 | 17.2 | 32.4 | 14.9 | 28.9 |  |  | 17.9 | 17.9 | 21 | 25.2
CC(=O)OCC(=O)O[C@@H]1C[C@]2(C(C)C)O[C@@]1(C)[C@@H]1CC[C@@H](C)[C@H]1[C@@H]2OC(=O)/C=C/c1ccccc1 | 0.472 | > 100 |  |  | > 100 | > 97.2 | 87.4 | < 39.9 | 22.6 | > 100 | 22 | 59.7 | 7.88 | > 100 |  |  | 42.5 | 24.5 | 18.5 | 23.6
O=C(Nc1cccc(Oc2nnc(Cl)c3ccccc23)c1)Nc1ccc(Cl)c(C(F)(F)F)c1 | 1.7 | 8.3 |  |  | 5.85 | 6.7 | 3.37 | 275 | 0.571 | 3.03 | 0.791 | 3.24 | 0.545 | 2.51 |  |  | 1.04 | 2.66 | 1.1 | 0.952
NNC(=S)N/N=C(/C(=O)Nc1cc(Cl)ccc1Cl)C1C(=O)Nc2ccccc2S1=O (stereo not drawn) | > 100 | > 100 | > 100 | > 100 | > 100 | > 100 | > 100 |  |  |  |  |  |  |  |  |  |  |  |  | 
COc1c(NC(C)=O)cc(C)cc1NC(C)=O | > 100 | > 100 | > 100 | > 100 |  | > 100 | > 100 |  |  |  |  |  |  |  |  |  |  |  |  | 
CCOC(=O)C1=C(O)CSC1=Nc1ccccc1 |  | > 100 | > 100 |  | > 100 | > 100 | > 100 |  |  |  |  |  |  |  |  |  |  |  |  | 
